± gives the expanded uncertainty stated by the source.

For this series the following is noted: 298.15 K; 101.33 kPa; Crystal; X-ray diffraction.

For the molecule `O.O.O.O.O.O.O.O=C([O-])c1cccc(C(=O)[O-])n1.O=C([O-])c1cccc(C(=O)[O-])n1.[Cu+2].[K+].[K+]` [dipotassium copper 2,6-pyridinedicarboxylate heptahydrate], the mass density is recorded as 1740 ± 2 kg/m3. `O.O.O.O.O.O.O.O=C([O-])c1cccc(C(=O)[O-])n1.O=C([O-])c1cccc(C(=O)[O-])n1.[K+].[K+].[Ni+2]` [dipotassium nickel 2,6-pyridinedicarboxylate heptahydrate]: the mass density was found to be 1723 ± 2 kg/m3.
